Data from ChEMBL document CHEMBL1201862, “PubChem BioAssay data set” (2004).
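96-well plates; 48 h exposure; 5 concentrations. Endpoints by linear interpolation between flanking doses. Not reached: highest tested concentration assigned. At the GI50, growth is halved.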 Active and inactive are the calls of the source. No stated cut-off is given here; in the data, active = GI50 up to about 1.1 µM and inactive = higher.

How the values were obtained:
Assay in all cases: inhibition of tumour cell growth, NCI panel, 48 h
[1] = tested on: MCF7
[2] = tested on: 786-0
[3] = tested on: RXF 393
[4] = tested on: SK-MEL-5
[5] = tested on: HCT-15
[6] = tested on: Hs-578T
[7] = tested on: UO-31
[8] = tested on: PC-3
[9] = tested on: OVCAR-5
[10] = tested on: RPMI-8226
[11] = tested on: NCI/ADR-RES
[12] = tested on: SF-295
[13] = tested on: NCI-H460
[14] = tested on: OVCAR-3
[15] = tested on: NCI-H226
[16] = tested on: TK-10
[17] = tested on: SNB-75
[18] = tested on: EKVX
[19] = tested on: HCC 2998
[20] = tested on: SK-MEL-28

Row | SMILES | GI50 [1] | GI50 [2] | GI50 [3] | GI50 [4] | GI50 [5] [µM] | GI50 [6] | GI50 [7] | GI50 [8] | GI50 [9] | GI50 [10] | GI50 [11] | GI50 [12] | GI50 [13] | GI50 [14] | GI50 [15] | GI50 [16] | GI50 [17] | GI50 [18] | GI50 [19] | GI50 [20]
1 | Cc1ccc2c(O)cc(-c3csc4ccccc34)nc2n1 | 0.0131 µM (active) | < 0.01 µM (active) | < 0.01 µM (active) | < 0.0112 µM (active) | < 0.0151 | 0.0101 µM (active) | 0.0138 µM (active) | < 0.01 µM (active) | 0.0358 µM (active) | < 0.01 µM (active) | < 0.01 µM (active) | < 0.01 µM (active) | < 0.0161 µM (active) | < 0.01 µM (active) | 0.0174 µM (active) | 0.484 µM (active) | < 0.01 µM (active) | 0.0344 µM (active) |  | 
2 | Cc1ccc(/C=N/Nc2cc(C)c3cccc(C)c3n2)s1 | 4.11 µM (inactive) | 2.74 µM (inactive) | 9.86 µM (inactive) | 9.86 µM (inactive) | 3.73 | 13.9 µM (inactive) | 5.79 µM (inactive) | 8.2 µM (inactive) | 9.91 µM (inactive) | 6.67 µM (inactive) | 2.99 µM (inactive) | 7.1 µM (inactive) |  | 8.02 µM (inactive) | 9.02 µM (inactive) | 14.7 µM (inactive) | 11.9 µM (inactive) | 13.5 µM (inactive) | 6.38 µM (inactive) | 22.3 µM (inactive)
3 | CC1C[C@]2(C)C(NCCN)=Nc3ccccc3[C@@H]2N(C)c2ccccc21 (stereo not given in full) | 8.18 µM (inactive) | 12.2 µM (inactive) | 8.85 µM (inactive) | 13.7 µM (inactive) | 17.3 | 18.3 µM (inactive) | 11.2 µM (inactive) | 12.9 µM (inactive) | 14 µM (inactive) | 14.1 µM (inactive) | 26.4 µM (inactive) | 17.9 µM (inactive) | 11.1 µM (inactive) | 11.1 µM (inactive) | 14.7 µM (inactive) | 9.29 µM (inactive) | 3.45 µM (inactive) | 16.8 µM (inactive) | 2.9 µM (inactive) | 11.2 µM (inactive)
4 | C/C(=N\NC(=S)N1CCC1)c1ccccn1 | 0.0015 µM (active) | < 0.0239 µM (active) | 0.163 µM (active) | < 0.0196 µM (active) | < 0.0219 | 4.06 µM (inactive) | 0.427 µM (active) | 0.0512 µM (active) |  | 0.01 µM (active) | 0.00332 µM (active) | 0.01 µM (active) | < 0.0184 µM (active) | 0.01 µM (active) | 0.293 µM (active) | 1.29 µM (inactive) | 0.838 µM (active) | 0.0658 µM (active) | 0.374 µM (active) | 0.425 µM (active)
5 | C/C(=N\c1ccc(Cl)cc1)c1ccncc1 | 32.4 µM (inactive) | > 100 µM (inactive) | > 100 µM (inactive) | 2.13 µM (inactive) | 0.36 | > 100 µM (inactive) | 4.04 µM (inactive) | > 100 µM (inactive) | > 100 µM (inactive) | 7.08 µM (inactive) | > 100 µM (inactive) | > 100 µM (inactive) | > 100 µM (inactive) | 41 µM (inactive) | > 100 µM (inactive) |  | > 100 µM (inactive) | 27.9 µM (inactive) | > 100 µM (inactive) | 5.14 µM (inactive)
6 | CN(CCCN(C)Cc1ccc(Cl)c(Cl)c1)CCN1CCCC1 | 18.4 µM (inactive) | 13.5 µM (inactive) | 15.1 µM (inactive) | 6.92 µM (inactive) | 29 | 17.7 µM (inactive) | 4.78 µM (inactive) | 28.2 µM (inactive) | 28.7 µM (inactive) | 4.28 µM (inactive) | > 66.5 µM (inactive) | 21.7 µM (inactive) | 16.9 µM (inactive) | 60.3 µM (inactive) | 21.2 µM (inactive) | 24.2 µM (inactive) | 19.1 µM (inactive) | 36.3 µM (inactive) | 3.5 µM (inactive) | 1.93 µM (inactive)
7 | O=C(CC(=O)N(C(=O)c1ccccc1)c1ccc(Cl)cc1)N/N=C\c1ccccc1O | 60.7 µM (inactive) | 40 µM (inactive) | 36.8 µM (inactive) | 64 µM (inactive) | 53.1 | 26 µM (inactive) | 38.7 µM (inactive) | 39.3 µM (inactive) | 36.6 µM (inactive) | > 100 µM (inactive) | 50.6 µM (inactive) | 25.9 µM (inactive) | 96.2 µM (inactive) | > 100 µM (inactive) | 35.5 µM (inactive) | 32.3 µM (inactive) | 22.9 µM (inactive) | 37 µM (inactive) | 33.6 µM (inactive) | > 100 µM (inactive)
8 | CC1C/C(=N\N(C)C)C(C#N)(C#N)C1(C#N)C#N (stereo not given) | 16 µM (inactive) | 3.7 µM (inactive) | 9.89 µM (inactive) | 18.7 µM (inactive) | 4.81 | 35.6 µM (inactive) | 15.6 µM (inactive) | 20.8 µM (inactive) | 21.6 µM (inactive) | 3.92 µM (inactive) | 25.8 µM (inactive) | 20.8 µM (inactive) |  | 13.2 µM (inactive) | 30.2 µM (inactive) | 13.6 µM (inactive) | 9.64 µM (inactive) | 22 µM (inactive) | 17 µM (inactive) | 16 µM (inactive)
9 | O=C1N[C@H](C(=O)O)[C@@H](c2ccc(OCc3ccccc3)cc2)O1 | 37.1 µM (inactive) | 16.6 µM (inactive) | 12.9 µM (inactive) | > 100 µM (inactive) | 41.8 | 27.5 µM (inactive) | > 100 µM (inactive) | > 100 µM (inactive) | > 100 µM (inactive) | 11.6 µM (inactive) | 22.5 µM (inactive) | 26.1 µM (inactive) |  | 92.5 µM (inactive) | 24.9 µM (inactive) | 27.4 µM (inactive) | 10.8 µM (inactive) | 22.4 µM (inactive) | > 100 µM (inactive) | > 100 µM (inactive)
10 | OC1c2ccccc2CCC1CN1CCN(CCOC(c2ccc(F)cc2)c2ccc(F)cc2)CC1 (stereo not given) | 14.5 µM (inactive) | 11.7 µM (inactive) | 6.18 µM (inactive) | 4.79 µM (inactive) | 6.05 | 17.9 µM (inactive) |  | 16.3 µM (inactive) |  | 5.77 µM (inactive) | 11.2 µM (inactive) | 18 µM (inactive) | 15.4 µM (inactive) | 17.4 µM (inactive) | 13.6 µM (inactive) | 17 µM (inactive) | 20.3 µM (inactive) |  | 4.79 µM (inactive) | 13.3 µM (inactive)
11 | Cc1ccc(S(=O)(=O)NC2C(=O)c3ccccc3C(=O)C2n2cnc3ccccc32)cc1 (stereo not given) | 31.6 µM (inactive) | 39.5 µM (inactive) | 24.9 µM (inactive) | 13.1 µM (inactive) | 25.6 | 51.6 µM (inactive) |  | 21.2 µM (inactive) | > 100 µM (inactive) | 32.5 µM (inactive) | 22.1 µM (inactive) | 37.8 µM (inactive) | 19.5 µM (inactive) | 4.3 µM (inactive) | 42.8 µM (inactive) | 17.7 µM (inactive) | 30.3 µM (inactive) | 34.3 µM (inactive) | 0.906 µM (active) | 29.3 µM (inactive)
12 | COC(NC(N)=O)C(=O)O (stereo not given) | > 100 µM (inactive) | > 100 µM (inactive) | > 100 µM (inactive) | > 100 µM (inactive) | > 100 | > 100 µM (inactive) | > 100 µM (inactive) | > 100 µM (inactive) | > 100 µM (inactive) | > 100 µM (inactive) | > 100 µM (inactive) | > 100 µM (inactive) | > 100 µM (inactive) | > 100 µM (inactive) | > 100 µM (inactive) | > 100 µM (inactive) | > 100 µM (inactive) | > 100 µM (inactive) |  | > 100 µM (inactive)
13 | Brc1ccc(C2=NCSC(c3ccc(Br)cc3)=N2)cc1 | 32.2 µM (inactive) | 10.7 µM (inactive) | 8.53 µM (inactive) | 25.2 µM (inactive) | 28.2 | 44.1 µM (inactive) | 15.4 µM (inactive) | 21.2 µM (inactive) | 76 µM (inactive) | 16.1 µM (inactive) | 30.5 µM (inactive) | 26.9 µM (inactive) | 18.4 µM (inactive) |  | 34.3 µM (inactive) | 17.6 µM (inactive) | 24.3 µM (inactive) | 11.6 µM (inactive) | 23 µM (inactive) | 46.5 µM (inactive)
14 | CC1(CCCO)CCCCCCCCCC(C)(CCCO)C1=O (stereo not given) | > 100 µM (inactive) | > 100 µM (inactive) | > 100 µM (inactive) | > 100 µM (inactive) | > 100 | > 100 µM (inactive) | > 100 µM (inactive) | > 100 µM (inactive) | > 100 µM (inactive) | > 100 µM (inactive) | > 100 µM (inactive) | > 100 µM (inactive) | > 100 µM (inactive) | > 100 µM (inactive) | > 100 µM (inactive) |  | > 100 µM (inactive) | > 100 µM (inactive) | > 100 µM (inactive) | > 100 µM (inactive)
15 | CC(=O)OCc1ccc2c(c1)C(O)NC(=O)O2 (stereo not given) | 78.9 µM (inactive) | > 100 µM (inactive) | > 100 µM (inactive) | 72.9 µM (inactive) | 44.3 | 18.7 µM (inactive) | > 100 µM (inactive) | > 100 µM (inactive) | > 100 µM (inactive) | 19.8 µM (inactive) | > 100 µM (inactive) | > 100 µM (inactive) | > 100 µM (inactive) | 21.8 µM (inactive) | 96.6 µM (inactive) | > 100 µM (inactive) | > 100 µM (inactive) | > 100 µM (inactive) |  | > 100 µM (inactive)
